What was measured:
HCC827 cells = assay: Resazurin conversion cell viability/proliferation assay in HCC827 cells; type: cell-based
Description: (§1) Non-small cell lung cancer cells, HCC827 (ATCC) were cultured in RPMI-1640 Glutamax medium (Sigma-Aldrich St. Louis, Mo., USA), under conventional culture conditions. Media was supplemented with 10% Fetal Bovine Serum (FBS), 1% glutamine and 1% streptomycin/penicillin (Sigma-Aldrich). HeLaNRF1/c4 reporter cells were cultured in Dulbecco's Modified Eagle's Medium (DMEM) supplemented with 10% FBS, 2 mM L-Glutamine, 100 u/ml penicillin/streptomycin (Sigma-Aldrich,). Incubation was done at 37° C. in 5% CO2.
(§2) Cell viability/proliferation was determined by the resazurin conversion assay. A total of 4000 cells were seeded in each of the 96-well plates in 100 μl of medium. After 3 hours of incubation, 100 μl of fresh medium with respective concentration of the desired compound or controls were added. Resazurin solution (Sigma-Aldrich) was added (10%, v/v in PBS) after 1 or 3 day treatment, followed by 3 hour incubation at 37° C. and 5% CO2. Resazurin fluorescence (excitation, 540 nm; emission, 590 nm) was measured and measurements were corrected for background signals. […] Relative viability was calculated from percent fluorescence relative to DMSO-treated control wells.

[1] = test system: HeLaNRF1/c4 reporter cells; assay: Resazurin conversion assay in HeLaNRF1/c4 reporter cells; type: cell-based; conditions: test compounds 30 μM and 60 μM, long treatment
Description: as §1, §2
In order to investigate if some of the compounds induce metabolic adaptations involving mitochondrial biogenesis, we employed the HeLaNRF1/c4 reporter cells in which activation of the transcription factor NRF1 triggers expression of GFP. Since adaptations of mitochondrial biogenesis are known to require some days to develop, we used a relatively low dosage (30 μM and 60 μM) of the compounds, to allow longer treatment period compared to the previous short term experiments.

[2] = test system: MOLM-13 human acute leukemia cells; assay: WST-1 viability of MOLM-13 cells; type: cell-based; conditions: for Abs450 nm (WST-1 viability): complexed to BSA
Description: MOLM-13 suspension cells were diluted and added to 96-well plates (15.000 cells/well).
The modified fatty acids TTA, tr-TTA, TDG (TGH) and tr-TDG (tr-TGH) were complexed to bovine serum albumin (BSA), and 10-fold dilutions of the fatty acids or BSA control were added to the wells in duplicate. Two plates were run in parallel, and WST-1 was added to the cells after 48 (plate 1) and 72 hours (plate 2). Absorbance at 450 nm measured to assess viability of the cells.

[3] = 4 week high-fat diet study, body weight, adipose tissue, plasma glucose and cholesterol; type: in vivo, C57BL/6 mice; conditions: mice, N-TTA 750 mg/kg or triple-N-TTA 350 mg/kg body weight, 4 weeks
Description: This animal study was conducted according to the Guidelines for the Care and Use of Experimental Animals, and the protocol was approved by the Norwegian Food Authorities. 7 to 8-weeks old male C57BL/6 mice, were obtained from Janvier Labs. After one week of acclimatization, they were divided into 3 groups of 7 animals. One group was fed a control high-fat (25 w/v) diet while the two remaining groups were fed a high-fat diet supplemented with either N-TTA (750 mg/kg body weight) or triple-N-TTA (350 mg/kg body weight). After 4 weeks of feeding, the mice were anaesthetized with Isofluorane (Forane, Abbot Laboratories Ltd, Illinois, USA) inhalation under fasting conditions, and blood and liver samples were collected. […]
Glucose and lipids in plasma was measured on the Hitachi 917 system (Roche Diagnostics, GmbH, Mannheim, Germany) using kits from Roche Diagnostics or DiaSys.

## CCCCCCCCCCCCCCNCC(=O)O [N-TTA, N-tetradecylglycine]
HCC827 cells; HCC827 cells, three different concentrations
  dose-dependent pattern of antiproliferative effects: dose-dependent pattern of antiproliferative effects was found
HCC827 cells; cultured cells, relatively high dosage
  overall effects on cell viability and mitochondrial function (summary): cytotoxic effects
[1]
  resazurin conversion: dose-dependent reduction
[2]; 48 hours, 0.0625 mM
  Abs450 nm (WST-1 viability): 0.9307
[2]; 48 hours, 0.125 mM
  Abs450 nm (WST-1 viability): 0.4765
[2]; 48 hours, 0.25 mM
  Abs450 nm (WST-1 viability): 0.5423
[2]; 48 hours, 0.5 mM
  Abs450 nm (WST-1 viability): 0.3207
[2]; 48 hours, 1 mM
  Abs450 nm (WST-1 viability): 0.257
[2]; 48 hours, 2 mM
  Abs450 nm (WST-1 viability): 0.3163
[2]; 72 hours, 0.03125 mM
  Abs450 nm (WST-1 viability): 0.4491
[2]; 72 hours, 0.0625 mM
  Abs450 nm (WST-1 viability): 0.8073
[2]; 72 hours, 0.125 mM
  Abs450 nm (WST-1 viability): 0.4813
[2]; 72 hours, 0.25 mM
  Abs450 nm (WST-1 viability): 0.203
[2]; 72 hours, 0.5 mM
  Abs450 nm (WST-1 viability): 0.175
[2]; 72 hours, 1 mM
  Abs450 nm (WST-1 viability): 0.1893
[2]; 72 hours, 2 mM
  Abs450 nm (WST-1 viability): 0.2359
[2]; MOLM-13, compared with TTA and tr-TTA
  toxicity to leukemic cells: toxic to leukemic cells at a lower concentration than TTA and tr-TTA
[3]
  LDL cholesterol (plasma): reduced
  body weight gain vs high-fat control diet: significantly lower
  cholesterol esters (plasma): reduced
  epididymal white adipose tissue depot: reduced in size
  free cholesterol (plasma): reduced
  perirenal white adipose tissue depot: reduced in size
  total cholesterol (plasma): reduced
[3]; fasting
  blood glucose vs high-fat control diet: significantly lower
